ChEMBL document CHEMBL1201862, “PubChem BioAssay data set” (2004)
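Dose response: 5 concentrations. Exposure: 48 h. Format: 96-well plates. Endpoint: linear interpolation; highest concentration if not reached. GI50: concentration for 50% inhibition of growth.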 Calls of active or inactive are those of the source. Rule as the data show it: active = GI50 up to about 1.1 µM and inactive = higher.

Assays:
Assay in all cases: DTP human tumour cell line panel, 48 h
786-0 = test system: 786-0
OVCAR-3 = test system: OVCAR-3
SF-539 = test system: SF-539
SNB-19 = test system: SNB-19
PC-3 = test system: PC-3
SW-620 = test system: SW-620
Malme-3M = test system: Malme-3M
BT-549 = test system: BT-549
SF-268 = test system: SF-268
K562 = test system: K562
MDA-N = test system: MDA-N
Hs-578T = test system: Hs-578T
TK-10 = test system: TK-10
DU-145 = test system: DU-145
A549 = test system: A549
HCC 2998 = test system: HCC 2998

Measured: GI50

CC1(C)CCC(C)(C)c2c1ccc(O)c2Cc1c(O)ccc2c1C(C)(C)CCC2(C)C
inactive: 786-0 1.92 µM | OVCAR-3 2.21 µM | SF-539 1.99 µM | SNB-19 2.28 µM | PC-3 2 µM | SW-620 2.18 µM | Malme-3M 2.7 µM | BT-549 2.33 µM | SF-268 2.47 µM | K562 2.19 µM | MDA-N 1.92 µM | Hs-578T 2.84 µM | TK-10 1.98 µM | DU-145 2.23 µM | A549 2.27 µM

O=C1NCN(c2ccccc2)C12CCN(CCCN1CCN(CCOC(c3ccc(F)cc3)c3ccc(F)cc3)CC1)CC2
inactive: 786-0 1.63 µM | OVCAR-3 2.03 µM | SF-539 1.71 µM | SNB-19 2.72 µM | PC-3 3.05 µM | HCC 2998 1.51 µM | SW-620 2.61 µM | Malme-3M 1.37 µM | BT-549 2.64 µM | SF-268 1.87 µM | MDA-N 1.82 µM | Hs-578T 2.06 µM | TK-10 1.75 µM | DU-145 1.73 µM | A549 2.03 µM
active: K562 0.91 µM

Clc1nc(Cl)nc(Nc2cccc3ccccc23)n1
inactive: SF-539 > 10 µM | SNB-19 > 10 µM | PC-3 > 10 µM | HCC 2998 > 10 µM | SW-620 > 10 µM | Malme-3M > 10 µM | SF-268 > 10 µM | K562 > 10 µM | MDA-N > 10 µM | Hs-578T > 10 µM | TK-10 > 10 µM | DU-145 > 10 µM | A549 > 10 µM
active: OVCAR-3 0.0436 µM

COC(=O)C1CC=C(SC(=O)c2ccccc2)N1C(=O)c1ccccc1 (stereo unspecified)
inactive: 786-0 > 100 µM | OVCAR-3 > 100 µM | SNB-19 > 100 µM | PC-3 > 100 µM | HCC 2998 > 100 µM | SW-620 > 100 µM | Malme-3M > 100 µM | BT-549 > 100 µM | SF-268 > 100 µM | K562 > 100 µM | MDA-N > 100 µM | Hs-578T > 100 µM | TK-10 > 100 µM | DU-145 > 100 µM | A549 > 100 µM

C=CS(=O)(=O)c1c2cc(OC)ccc2nc2ccc(OC)cc12
inactive: 786-0 2.37 µM | OVCAR-3 2.82 µM | SF-539 2.51 µM | SNB-19 12.6 µM | PC-3 7.29 µM | HCC 2998 7.91 µM | SW-620 3.12 µM | Malme-3M 2.04 µM | BT-549 10.5 µM | SF-268 8.57 µM | K562 4.39 µM | MDA-N 3.5 µM | Hs-578T 2.97 µM | TK-10 7.62 µM | DU-145 3.53 µM | A549 17.1 µM

COC(=O)c1c(O)ccc2c1c1c(n2Cc2cccc(C)c2)C(=O)c2ccccc2C1=O
inactive: 786-0 11.9 µM | OVCAR-3 8.2 µM | SF-539 14.8 µM | SNB-19 14.1 µM | PC-3 11 µM | HCC 2998 2.7 µM | SW-620 14.2 µM | Malme-3M 16.7 µM | BT-549 15 µM | SF-268 12 µM | K562 8.91 µM | MDA-N 13.1 µM | Hs-578T 12.4 µM | TK-10 12 µM | DU-145 14.4 µM | A549 6.97 µM

Cc1cc(S(=O)(=O)NC2=NCCCN2)c(S)cc1Cl
active: BT-549 0.721 µM
inactive: 786-0 20.8 µM | OVCAR-3 31.6 µM | SF-539 57.8 µM | SNB-19 40.6 µM | PC-3 58.5 µM | HCC 2998 36.1 µM | SW-620 19.9 µM | Malme-3M 26.4 µM | SF-268 87.1 µM | K562 22.8 µM | MDA-N 43.9 µM | Hs-578T 24.5 µM | TK-10 26.9 µM | DU-145 72.4 µM | A549 21.6 µM

O=C1NCN(c2ccccc2)C12CCN(CCCSc1ccc(F)cc1)CC2
inactive: 786-0 24.3 µM | OVCAR-3 55.6 µM | SF-539 17.3 µM | SNB-19 97.3 µM | PC-3 47.2 µM | HCC 2998 20.2 µM | SW-620 > 49.1 µM | Malme-3M 21.2 µM | SF-268 28.8 µM | K562 19.5 µM | Hs-578T > 42.1 µM | TK-10 24.2 µM | DU-145 11 µM | A549 33.1 µM

Nc1ccc(C(=O)NN2C(=O)[C@H](Cl)C2c2ccc(Cl)cc2)cc1 (stereo partly specified)
active: OVCAR-3 0.57 µM | SF-268 1.06 µM | TK-10 0.838 µM
inactive: 786-0 1.32 µM | SF-539 1.79 µM | SNB-19 1.67 µM | PC-3 1.6 µM | HCC 2998 1.65 µM | SW-620 2.11 µM | Malme-3M 2.21 µM | K562 1.82 µM | DU-145 1.56 µM | A549 2.45 µM

O=C1CCCCC[C@]12SC[C@H]1CON=C12
inactive: 786-0 34 µM | OVCAR-3 89.7 µM | SF-539 41.3 µM | SNB-19 > 100 µM | HCC 2998 29.1 µM | SW-620 50.8 µM | Malme-3M 18.8 µM | BT-549 39.2 µM | K562 42.6 µM | MDA-N 12.5 µM | Hs-578T 59 µM | TK-10 > 100 µM | DU-145 33.8 µM | A549 37.1 µM

CC1[C@@H](OCc2ccccc2)COC(=O)N1Cc1ccccc1 (stereo partly specified)
inactive: 786-0 > 100 µM | OVCAR-3 > 100 µM | SNB-19 > 100 µM | PC-3 93.8 µM | SW-620 > 100 µM | Malme-3M > 100 µM | SF-268 > 100 µM | K562 60 µM | MDA-N > 100 µM | Hs-578T > 100 µM | TK-10 > 100 µM | DU-145 > 100 µM | A549 85.9 µM

C=CCOC1=C(OCC=C)C(C2COC(C)(C)O2)OC1=O (stereo unspecified)
inactive: 786-0 67 µM | OVCAR-3 > 100 µM | SF-539 > 100 µM | SNB-19 > 100 µM | PC-3 > 100 µM | HCC 2998 > 100 µM | SW-620 > 100 µM | Malme-3M > 100 µM | BT-549 > 100 µM | SF-268 > 100 µM | K562 75.5 µM | MDA-N > 100 µM | Hs-578T > 100 µM | TK-10 > 100 µM | DU-145 > 100 µM | A549 > 100 µM

Cc1nc(-c2cccnc2)sc1C(=O)CC(=O)C(=O)Nc1cccc(NC(=O)C(=O)CC(=O)c2sc(-c3cccnc3)nc2C)n1
inactive: 786-0 > 100 µM | OVCAR-3 > 100 µM | SF-539 > 100 µM | SNB-19 > 100 µM | PC-3 > 100 µM | HCC 2998 > 100 µM | SW-620 > 100 µM | Malme-3M > 100 µM | BT-549 > 100 µM | SF-268 > 100 µM | K562 > 100 µM | MDA-N > 100 µM | Hs-578T > 100 µM | DU-145 > 100 µM | A549 > 100 µM

COC(=O)c1c(O)ccc2c1c1c(n2Cc2cccc(C)c2)C(=O)c2ccccc2C1
inactive: OVCAR-3 12.6 µM | SF-539 17.1 µM | SNB-19 > 75 µM | PC-3 9.1 µM | SW-620 26.2 µM | Malme-3M 13.5 µM | BT-549 26.5 µM | SF-268 28 µM | K562 29.4 µM | Hs-578T 23.2 µM | TK-10 22 µM | DU-145 51.4 µM | A549 25.2 µM

CC1(C)C(=O)c2ccccc2OC1N1CCN(C2Oc3ccccc3C(=O)C2(C)C)CC1 (stereo unspecified)
inactive: OVCAR-3 > 100 µM | SNB-19 > 100 µM | PC-3 > 100 µM | HCC 2998 > 100 µM | SW-620 > 100 µM | Malme-3M 30.3 µM | BT-549 > 100 µM | SF-268 > 100 µM | K562 > 100 µM | MDA-N > 100 µM | Hs-578T 61.1 µM | TK-10 > 100 µM | DU-145 > 100 µM

c1ccc(/N=C2\S/C(=N\C3CCCCC3)N(C3CCCCC3)\C2=N/c2ccccc2)cc1
inactive: OVCAR-3 > 100 µM | SNB-19 > 100 µM | PC-3 67.1 µM | HCC 2998 > 100 µM | Malme-3M > 100 µM | BT-549 > 100 µM | K562 > 100 µM | MDA-N > 100 µM | Hs-578T > 100 µM | DU-145 > 100 µM

CC1OC2=N[C@@H]1C(=O)N[C@@H](Cc1ccccc1)C1=N[C@H](C(=O)N[C@@H](Cc3ccccc3)C3=N[C@H](C(=O)N[C@H]2Cc2ccccc2)C(C)O3)C(C)O1 (stereo partly specified)
inactive: OVCAR-3 28.2 µM | SF-539 24.2 µM | PC-3 22.4 µM | HCC 2998 34.5 µM | SW-620 37.2 µM | Malme-3M 22.4 µM | BT-549 40 µM | K562 26.7 µM | MDA-N 43.2 µM | Hs-578T 24.3 µM | TK-10 26.5 µM | DU-145 57.9 µM | A549 25.5 µM

CC1(C)COC(/C=C/C2=NC(C)(C)CO2)=N1
active: Hs-578T < 0.01 µM
inactive: OVCAR-3 12.4 µM | SF-539 22 µM | SNB-19 68.5 µM | PC-3 17.5 µM | SW-620 12.7 µM | Malme-3M 17.5 µM | BT-549 23.1 µM | SF-268 24.3 µM | K562 18.2 µM | MDA-N 20.1 µM | TK-10 11.3 µM | DU-145 13 µM | A549 42.9 µM

Nc1nc(N)c2c(n1)NC(=O)c1c(c3ccccc3n1Cc1ccc(Cl)cc1)C2
inactive: OVCAR-3 23.3 µM | SF-539 23.9 µM | SNB-19 > 100 µM | PC-3 23 µM | HCC 2998 17.8 µM | SW-620 35.8 µM | Malme-3M 55.3 µM | BT-549 24.2 µM | SF-268 45.5 µM | K562 25.6 µM | MDA-N 16.6 µM | Hs-578T 24 µM | TK-10 21.5 µM | DU-145 14.4 µM | A549 21.1 µM
